The source made the active and inactive calls. The calls are words filed in the database; no cut-off is given here.
Tests used:
[1] = molecular target: T1, Cysteinyl leukotriene receptor 1 (Cavia porcellus, UniProt Q2NNR5); test: Displacement of [3H]LTD4 on guinea pig lung parenchymal membranes; format: tissue-based, Lung parenchyma
T1 sequence (Q2NNR5 whole entry): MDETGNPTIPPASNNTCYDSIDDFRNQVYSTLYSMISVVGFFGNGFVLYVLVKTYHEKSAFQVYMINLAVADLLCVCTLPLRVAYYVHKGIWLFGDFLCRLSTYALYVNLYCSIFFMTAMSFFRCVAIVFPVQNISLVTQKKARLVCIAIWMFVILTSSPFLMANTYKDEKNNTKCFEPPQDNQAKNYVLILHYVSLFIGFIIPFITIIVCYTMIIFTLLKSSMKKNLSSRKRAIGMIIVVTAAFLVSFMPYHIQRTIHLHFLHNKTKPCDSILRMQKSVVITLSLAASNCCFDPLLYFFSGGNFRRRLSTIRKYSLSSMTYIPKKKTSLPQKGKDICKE

[2] = molecular target: Cysteinyl leukotriene receptor 1 (Cavia porcellus); test: Inhibition constant for displacement of [3H]LTD4 on guinea pig lung parenchymal membranes.
Cavia porcellus [3] = test: Effective dose of compound was measured in vivo for blocking LTD4 induced dyspnea after po administration.; format: functional
Cavia porcellus [4] = test: Percent protection of animals against aerosolized LTD4-induced dyspnea at the concentration of 0.6 mg/kg.; format: functional; conditions: inhaled or nasal
[5] = tested on: Cysteinyl leukotriene receptor 1 (Cavia porcellus); test: Dissociation constant (Kb) against LTD4
[6] = molecular target: T1, Cysteinyl leukotriene receptor 1; test: Inhibition constant for displacement of [3H]LTD4 on guinea pig lung parenchymal membranes.; format: tissue-based, Lung parenchyma
Cavia porcellus [7] = species: Cavia porcellus; test: Inhibition of peptidoleukotriene LTE4 induced contraction of guinea pig tracheal spirals at the concentration of 100 uM.; format: functional; conditions: Trachea
Cavia porcellus [8] = species: Cavia porcellus; test: Inhibition of peptidoleukotriene LTE4 induced contraction of guinea pig tracheal spirals at the concentration of 1 uM.; format: functional; conditions: Trachea
Cavia porcellus [9] = test: Percent protection of animals against aerosolized LTD4-induced dyspnea at the concentration of 1.8 mg/kg.; format: functional
Cavia porcellus [10] = test: Percent protection of animals against aerosolized LTD4-induced dyspnea at the concentration of 0.6 mg/kg; Not significant; format: functional, organism-based; design: dose 0.6 mg/kg
Cavia porcellus [11] = species: Cavia porcellus; test: Inhibition of peptidoleukotriene LTE4 induced contraction of guinea pig tracheal spirals at the concentration of 3.3 uM.; format: functional; conditions: Trachea
Cavia porcellus [12] = species: Cavia porcellus; test: Inhibition of peptidoleukotriene LTE4 induced contraction of guinea pig tracheal spirals at the concentration of 3.3 uM; Not significant; format: functional; conditions: Trachea

Structure (SMILES) | Ki [2] [nM] | pKB [5] | further results
CCCc1c(OCCCCc2nnn[nH]2)ccc(C(C)=O)c1O [TOMELUKAST] |  |  | Ki [1]: 2820 nM
COc1cc(C(=O)NS(=O)(=O)c2ccccc2Br)ccc1Cc1nn(C)c2ccc(NC(=O)OC3CCCC3)cc12 | 0.3 |  | ED50 (Cavia porcellus [3]): 1.1 mg/kg
COc1cc(C(=O)O)ccc1Cc1nn(C)c2ccc(NC(=O)CC3CCCC3)cc12 | 132 |  | 
COc1cc(C(=O)NS(=O)(=O)c2ccccc2Cl)ccc1Cc1nn(C)c2ccc(NC(=O)CC3CCCC3)cc12 | 0.3 |  | protection at 0.6 mg/kg (Cavia porcellus [4]): 48%
COc1cc(C(=O)NS(=O)(=O)c2ccccc2)ccc1Cc1cn(C)c2ccc(NC(=O)NC3CCCC3)cc12 |  |  | ED50 (Cavia porcellus [3]): ~35 mg/kg; Ki [1]: 0.8 nM
COc1cc(C(=O)O)ccc1Cc1c[nH]c2ccc(NC(=O)OC3CCCC3)cc12 |  | 7.32 | Ki [6]: 236 nM
COc1cc(C(=O)NS(=O)(=O)c2ccccc2C)ccc1Cc1cn(C)c2ccc(NC(=O)CC3CCCC3)cc12 |  | 9.64 | ED50 (Cavia porcellus [3]): 0.2 mg/kg; Ki [1]: 0.5 nM
CCCn1cc(Cc2ccc(C(=O)NS(=O)(=O)c3ccccc3)cc2OC)c2cc(NC(=O)NC3CCCC3)ccc21 |  | 9.2 | Ki [1]: 0.5 nM
COc1cc(C(=O)O)ccc1Cn1ccc2ccc(NC(=O)CC3CCCC3)cc21 |  | 7.68 | Ki [1]: 200 nM
CCCC(CC)C(=O)Nc1ccc2c(c1)c(Cc1ccc(C(=O)O)cc1OC)cn2C (stereo unspecified) |  |  | Ki [6]: 1830 nM
COc1cc(C(=O)O)ccc1Cn1ncc2ccc(NC(=O)CC3CCCC3)cc21 |  |  | Ki [1]: 50 nM
COc1cc(C(=O)NS(=O)(=O)c2ccccc2C)ccc1Cc1cn(C)c2ccc(NC(=O)NC3CCCC3)cc12 |  | 9.31 | ED50 (Cavia porcellus [3]): 0.9 mg/kg; Ki [1]: 1.4 nM
COc1cc(C(=O)NS(=O)(=O)c2ccccc2Cl)ccc1Cc1cn(C)c2ccc(NC(=O)NC3CCCC3)cc12 | 0.7 | 10.2 | 
COc1cc(C(=O)NS(=O)(=O)c2ccccc2Cl)ccc1Cc1nn(C)c2ccc(NC(=O)OC3CCCC3)cc12 | 0.3 |  | ED50 (Cavia porcellus [3]): 1 mg/kg
COc1cc(C(=O)O)ccc1Cn1ncc2ccc(NC(=O)OC3CCCC3)cc21 |  |  | Ki [1]: 80 nM
COCCn1cc(Cc2ccc(C(=O)NS(=O)(=O)c3ccccc3)cc2OC)c2cc(NC(=O)OC3CCCC3)ccc21 | 0.2 | 9.39 | ED50 (Cavia porcellus [3]): 1.1 mg/kg
COc1cc(C(=O)NS(=O)(=O)c2ccccc2C)ccc1Cc1c[nH]c2ccc(NC(=O)CC3CCCC3)cc12 |  | 9.69 | ED50 (Cavia porcellus [3]): 1.3 mg/kg; Ki [1]: 1 nM
COc1cc(C(=O)O)ccc1Cc1cn(Cc2ccccc2)c2ccc(NC(=O)CC3CCCC3)cc12 | 70 |  | 
COc1cc(C(=O)NS(=O)(=O)c2ccccc2Br)ccc1Cc1cn(C)c2ccc(NC(=O)CC3CCCC3)cc12 | 0.5 | 10.1 | 
COc1cc(C(=O)O)ccc1Cc1cn(C)c2ccc(NC(=O)CC3CCCC3)cc12 |  |  | inhibition at 100 µM (Cavia porcellus [7]): 94%; Ki [6]: 80 nM
COc1cc(C(=O)O)ccc1Cn1ccc2ccc(NC(=O)OC3CCCC3)cc21 |  | 7.8 | Ki [1]: 160 nM
COc1cc(C(=O)NS(=O)(=O)c2ccccc2)ccc1Cc1cn(C)c2ccc(NC(=O)CC3CCCC3)cc12 |  | 9.8 | ED50 (Cavia porcellus [3]): 1 mg/kg; Ki [1]: 0.3 nM
CCCCCC(=O)Nc1ccc2c(c1)c(Cc1ccc(C(=O)O)cc1OC)cn2C |  |  | Ki [6]: 1900 nM; inhibition at 1 µM (Cavia porcellus [8]): 77%
COc1cc(C(=O)NS(=O)(=O)c2ccccc2Cl)ccc1Cc1nn(C)c2ccc(NC(=O)CC3CCCCC3)cc12 | 0.25 |  | protection at 1.8 mg/kg (Cavia porcellus [9]): 71%; ED50 (Cavia porcellus [10]): inactive
CCn1cc(Cc2ccc(C(=O)O)cc2OC)c2cc(NC(=O)CC3CCCC3)ccc21 | 71 |  | 

Structure (SMILES) | Ki [2] [nM] | pKB [5] | further results
COc1cc(C(=O)NS(=O)(=O)c2ccccc2)ccc1Cc1nn(C)c2ccc(NC(=O)OC3CCCC3)cc12 | 0.25 |  | 
CCCCCC(=O)Nc1ccc2c(c1)c(Cc1ccc(C(=O)O)cc1OC)cn2Cc1ccccc1 |  |  | inhibition at 1 µM (Cavia porcellus [8]): 38%
CCCn1cc(Cc2ccc(C(=O)O)cc2OC)c2cc(NC(=O)CC3CCCC3)ccc21 | 84 |  | 
CCCn1cc(Cc2ccc(C(=O)O)cc2OC)c2cc(NC(=O)OC3CCCC3)ccc21 |  | 7.72 | Ki [6]: 58 nM
COc1cc(C(=O)NS(=O)(=O)c2ccccc2)ccc1Cc1c[nH]c2ccc(NC(=O)OC3CCCC3)cc12 | 1.4 | 9.8 | 
COc1cc(C(=O)NS(=O)(=O)C(C)C)ccc1Cc1cn(Cc2cccc(C#N)c2)c2ccc(NC(=O)CC3CCCC3)cc12 | 6.8 | 9.28 | 
CCCCCC(=O)Nc1ccc2[nH]cc(Cc3ccc(C(=O)O)cc3OC)c2c1 |  |  | inhibition at 3.3 µM (Cavia porcellus [11]): 64%
COc1cc(C(=O)NS(=O)(=O)c2ccccc2C)ccc1Cc1nn(C)c2ccc(NC(=O)CC3CCCC3)cc12 | 0.3 |  | protection at 1.8 mg/kg (Cavia porcellus [9]): 100%; protection at 0.6 mg/kg (Cavia porcellus [4]): 47%
COc1cc(C(=O)O)ccc1Cc1cn(C)c2ccc(NC(=O)OC3CCCC3)cc12 |  | 7.84 | inhibition at 100 µM (Cavia porcellus [7]): 75%; Ki [6]: 157 nM
COc1cc(C(=O)NS(=O)(=O)c2ccccc2Cl)ccc1Cc1cn(C)c2ccc(NC(=O)CC3CCCC3)cc12 | 0.3 | 9.85 | 
COc1cc(C(=O)NS(=O)(=O)c2ccccc2C)ccc1Cc1cn(C)c2ccc(NC(=O)OC3CCCC3)cc12 [ZAFIRLUKAST] |  |  | ED50 (Cavia porcellus [3]): 0.3 mg/kg
COc1cc(C(=O)O)ccc1Cc1cn(CC2CC2)c2ccc(NC(=O)OC3CCCC3)cc12 | 57 |  | 
COc1cc(C(=O)NS(=O)(=O)c2ccccc2)ccc1Cc1cn(C2CCCC2)c2ccc(NC(=O)OC3CCCC3)cc12 | 67 | 7.84 | 
CCCn1cc(Cc2ccc(C(=O)NS(=O)(=O)c3ccccc3)cc2OC)c2cc(NC(=O)OC3CCCC3)ccc21 |  | 8.44 | ED50 (Cavia porcellus [3]): 1 mg/kg
C=CCn1cc(Cc2ccc(C(=O)O)cc2OC)c2cc(NC(=O)CCCCC)ccc21 |  |  | inhibition at 1 µM (Cavia porcellus [8]): 43%
COc1cc(C(=O)O)ccc1Cc1cn(Cc2cccc(C#N)c2)c2ccc(NC(=O)CC3CCCC3)cc12 | 10 | 8.55 | 
COc1cc(C(=O)O)ccc1Cc1cn(C2CCCC2)c2ccc(NC(=O)OC3CCCC3)cc12 | 53 | 7.67 | 
CCCCCC(=O)Nc1ccc2c(c1)c(Cc1ccc(C(=O)O)cc1OC)cn2CC(=O)O |  |  | inhibition (Cavia porcellus [12]): inactive
COc1cc(C(=O)O)ccc1Cc1nn(C)c2ccc(NC(=O)OC3CCCC3)cc12 |  |  | Ki [1]: 160 nM
COCCn1cc(Cc2ccc(C(=O)O)cc2OC)c2cc(NC(=O)OC3CCCC3)ccc21 |  |  | Ki [6]: 41 nM
COc1cc(C(=O)NS(C)(=O)=O)ccc1Cc1cn(Cc2cccc(C#N)c2)c2ccc(NC(=O)CC3CCCC3)cc12 | 5.6 | 9 | 
COc1cc(C(=O)NS(=O)(=O)c2ccccc2)ccc1Cc1cn(C)c2ccc(NC(=O)OC3CCCC3)cc12 | 0.8 | 9.69 | ED50 (Cavia porcellus [3]): 2.5 mg/kg
COc1cc(C(=O)O)ccc1Cc1cn(C)c2ccc(NC(=O)NC3CCCC3)cc12 |  |  | Ki [6]: 1120 nM
COc1cc(C(=O)NS(=O)(=O)c2ccccc2Cl)ccc1Cc1nn(C)c2ccc(NC(=O)NC3CCC3)cc12 | 0.1 |  | ED50 (Cavia porcellus [3]): 1 mg/kg
COc1cc(C(=O)NS(=O)(=O)c2ccccc2C)ccc1Cc1nn(C)c2ccc(NC(=O)OC3CCCC3)cc12 | 0.3 |  | ED50 (Cavia porcellus [3]): 0.5 mg/kg
